The assay has as its target Polθ theta (1-899) (hPolQ) (Homo sapiens (Human), UniProt O75417). Briefly: Biological Assay 1: Polθ ATPase activity, NADH oxidation-coupled enzymatic assay (10 nM enzyme, 30 min). The following applies: Polθ (1-899) 10 nM, 100 μM ATP, 300 nM dT50 ssDNA; Examples 1 to 268; read-out: ATPase NADH coupling:Standard Screening:hPolQ IC50. It counts as biochemical. The protocol: The ability of the compounds of Formula (I), (II), (III), (IV), or Table 1 (Examples 1 to Example 268) to inhibit ATPase activity of Polθ theta (1-899) was determined using the assay described below.
Polθ Theta ATPase activity was determined by measuring the rate of ATP turn over in a NADH oxidation-coupled enzymatic assay. 10-point dilution series of compounds were used in a 384 well format for the inhibition assays. Polθ theta (1-899) (10 nM) in assay buffer (20 mM Tris HCl (pH 7.80), 80 mM KCl, 10 mM MgCl2, 1 mM DTT, 0.01% BSA, 0.01% Tween, 5% glycerol) was transferred to the test wells (20 μL), except the low control wells (20 μL of assay buffer was added to the low control wells). The plate was then incubated at room temperature for 15 min. An equal volume (20 μL) of 100 μM ATP, 300 nM dT50 (single-stranded DNA (ssDNA) containing 50 thymine bases), 300 μM NADH, 6 mM PEP, 10 U/mL lactate dehydrogenase and U/mL pyruvate kinase in assay buffer was added to all the test wells. The plate was then centrifuged at 1000 rpm for 1 min. The reaction was monitored for 30 min by measuring absorbance (λ=340 nm) in a Tecan Spark multimode plate reader every minute. The high control (DMSO with enzyme) with low absorbance intensity represents no inhibition of ATPase reaction while the low control (DMSO with buffer) with high absorbance intensity represents full inhibition of ATPase activity. Slope of the reaction progress curves were used to calculate the rate of ATP hydrolysis. The rates were used to determine the percent inhibition using a four-parameter inhibition model to generate IC50, Hill slope and max inhibition.
Chain of Polθ theta (1-899) (hPolQ) (O75417 1-899): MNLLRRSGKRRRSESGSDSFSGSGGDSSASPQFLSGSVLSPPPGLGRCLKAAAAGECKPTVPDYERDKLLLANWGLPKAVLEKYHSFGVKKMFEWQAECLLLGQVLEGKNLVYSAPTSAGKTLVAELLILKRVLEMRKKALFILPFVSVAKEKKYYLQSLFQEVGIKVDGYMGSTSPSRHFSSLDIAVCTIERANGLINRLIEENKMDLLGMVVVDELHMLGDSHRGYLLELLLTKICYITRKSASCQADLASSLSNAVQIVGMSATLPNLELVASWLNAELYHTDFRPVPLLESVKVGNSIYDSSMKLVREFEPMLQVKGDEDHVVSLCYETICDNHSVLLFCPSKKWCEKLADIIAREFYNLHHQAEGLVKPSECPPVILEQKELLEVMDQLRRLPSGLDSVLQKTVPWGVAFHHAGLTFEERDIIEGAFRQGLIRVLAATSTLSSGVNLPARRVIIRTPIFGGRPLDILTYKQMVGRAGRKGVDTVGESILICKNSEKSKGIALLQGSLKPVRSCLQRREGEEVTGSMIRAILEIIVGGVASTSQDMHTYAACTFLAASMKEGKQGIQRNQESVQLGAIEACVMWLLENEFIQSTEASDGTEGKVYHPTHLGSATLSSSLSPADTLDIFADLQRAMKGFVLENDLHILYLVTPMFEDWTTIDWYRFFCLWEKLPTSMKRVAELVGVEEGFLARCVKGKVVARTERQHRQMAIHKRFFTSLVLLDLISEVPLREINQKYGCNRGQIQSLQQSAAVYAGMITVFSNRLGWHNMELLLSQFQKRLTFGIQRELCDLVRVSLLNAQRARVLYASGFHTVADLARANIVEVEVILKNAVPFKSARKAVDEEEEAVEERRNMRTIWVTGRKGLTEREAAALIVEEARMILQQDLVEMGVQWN
With `Cc1cc(-c2cc(Cl)ncc2OC(F)F)c(C(=O)Nc2nnc(OC[C@H]3CC[C@H](O)CC3)s2)cn1` [Example 243, 2′-chloro-5′-(difluoromethoxy)-N-(5-(((1r,4r)-4-hydroxycyclohexyl)methoxy)-1,3,4-thiadiazol-2-yl)-6-methyl-(4,4′-bipyridine)-3-carboxamide], the IC50 was not above 200 nM. In the case of `COc1cnc(Cl)cc1-c1cc(C)ncc1C(=O)Nc1nnc(OC[C@H]2COC3(CCC3)C2)s1` (single isomer, unassigned) [Example 227] it was not above 200 nM; in that of `COc1cccc(F)c1-c1cc(C)ncc1C(=O)Nc1nnc(OCc2cnc([C@@H](C)O)cn2)s1` [Example 111, 4-(2-fluoro-6-methoxyphenyl)-N-(5-((5-((R)-1-hydroxyethyl)pyrazin-2-yl)methoxy)-1,3,4-thiadiazol-2-yl)-6-methylnicotinamide], not above 200 nM; in that of `COc1cnc(C)cc1-c1cc(C)ncc1C(=O)Nc1nnc(OCc2ccc(C(C)(C)C#N)cn2)s1` [Example 83, N-(5-((5-(2-cyanopropan-2-yl)pyridin-2-yl)methoxy)-1,3,4-thiadiazol-2-yl)-5′-methoxy-2′,6-dimethyl-(4,4′-bipyridine)-3-carboxamide], not above 200 nM. Then `COc1cccc(F)c1-c1cc(C)ncc1C(=O)Nc1nnc(OCC23CC(C#N)(C2)C3)s1` [Example 95, N-(5-((3-cyanobicyclo(1.1.1)pentan-1-yl)methoxy)-1,3,4-thiadiazol-2-yl)-4-(2-fluoro-6-methoxyphenyl)-6-methylpyridine-3-carboxamide], with not above 200 nM. On to `COc1cnc(Cl)cc1-c1cc(C)ncc1C(=O)Nc1nnc(OCC2CCN(C)C2)s1` (stereo not drawn) [Example 176, 2′-chloro-5′-methoxy-6-methyl-N-(5-((1-methylpyrrolidin-3-yl)methoxy)-1,3,4-thiadiazol-2-yl)-(4,4′-bipyridine)-3-carboxamide], for which the IC50 was 200 to 500 nM.

As for `COc1cnc(Cl)cc1-c1cc(C)ncc1C(=O)Nc1nnc(OCC2CCC(F)(F)CC2)s1` [Example 153, 2′-chloro-N-(5-((4,4-difluorocyclohexyl)methoxy)-1,3,4-thiadiazol-2-yl)-5′-methoxy-6-methyl-(4,4′-bipyridine)-3-carboxamide], the IC50 was not above 200 nM. Then `COc1cnc(Cl)cc1-c1cc(C)ncc1C(=O)Nc1nnc(OCC2COC(C)C2)s1` (stereo not drawn) [Example 262, 2′-chloro-5′-methoxy-6-methyl-N-(5-((5-methyltetrahydrofuran-3-yl)methoxy)-1,3,4-thiadiazol-2-yl)-(4,4′-bipyridine)-3-carboxamide], with not above 200 nM; and `COc1cnc(Cl)cc1-c1cc(C)ncc1C(=O)Nc1nnc(OCC2CCNCC2)s1` [Example 174, 2′-chloro-5′-methoxy-6-methyl-N-(5-(piperidin-4-ylmethoxy)-1,3,4-thiadiazol-2-yl)-(4,4′-bipyridine)-3-carboxamide], with not above 200 nM; and `COc1cnc(Cl)cc1-c1cc(C)ncc1C(=O)Nc1nnc(OC[C@H]2CO[C@@H](C)C2)s1` (single isomer, unassigned) [Example 251], with not above 200 nM. In the case of `COc1cnc(Cl)cc1-c1cc(C)ncc1C(=O)Nc1nnc(OCC23CC(C(C)(C)O)(C2)C3)s1` [Example 143, 2′-chloro-N-(5-((3-(2-hydroxypropan-2-yl)bicyclo(1.1.1)pentan-1-yl)methoxy)-1,3,4-thiadiazol-2-yl)-5′-methoxy-6-methyl-(4,4′-bipyridine)-3-carboxamide] it was not above 200 nM; in that of `COc1ccccc1-c1cnccc1C(=O)Nc1nnc(OCCC2(C#N)CC2)s1` [Example 192, N-(5-(2-(1-cyanocyclopropyl)ethoxy)-1,3,4-thiadiazol-2-yl)-3-(2-methoxyphenyl)pyridine-4-carboxamide], 1000 to 10000 nM. In the case of `COc1ccccc1-c1cc(C)ncc1C(=O)Nc1nnc(OCc2ncccc2CO)s1` [Example 62, N-(5-((3-(hydroxymethyl)pyridin-2-yl)methoxy)-1,3,4-thiadiazol-2-yl)-4-(2-methoxyphenyl)-6-methylpyridine-3-carboxamide] it was 200 to 500 nM; in that of `COc1cnc(Cl)cc1-c1cc(C)ncc1C(=O)Nc1nnc(OCc2ccc(C(C)(C)C#N)cn2)s1` [Example 84, 2′-chloro-N-(5-((5-(2-cyanopropan-2-yl)pyridin-2-yl)methoxy)-1,3,4-thiadiazol-2-yl)-5′-methoxy-6-methyl-(4,4′-bipyridine)-3-carboxamide], not above 200 nM; in that of `COc1c(F)cccc1-c1cc(C)ncc1C(=O)Nc1nnc(OCc2ccc(Cl)cn2)s1` [Example 16, N-(5-((5-chloropyridin-2-yl)methoxy)-1,3,4-thiadiazol-2-yl)-4-(3-fluoro-2-methoxyphenyl)-6-methylnicotinamide], not above 200 nM. Turning to `COc1cnc(Cl)cc1-c1cc(C)ncc1C(=O)Nc1nnc(OCc2ccc(C3(C)COC3)cn2)s1` [Example 86, 2′-chloro-5′-methoxy-6-methyl-N-(5-((5-(3-methyloxetan-3-yl)pyridin-2-yl)methoxy)-1,3,4-thiadiazol-2-yl)-[4,4′-bipyridine]-3-carboxamide], the IC50 was not above 200 nM. Then `COc1cccc(F)c1-c1cc(C)ncc1C(=O)Nc1nnc(OCc2ccc([S@@](C)(=N)=O)cn2)s1` [Example 150, 4-(2-fluoro-6-methoxyphenyl)-6-methyl-N-(5-((5-((S)—S-methylsulfonimidoyl)pyridin-2-yl)methoxy)-1,3,4-thiadiazol-2-yl)nicotinamide], with not above 200 nM; and `COc1cnc(Cl)cc1-c1cc(C)ncc1C(=O)Nc1nnc(OC[C@@]2(C)CCOC2)s1` (single isomer, unassigned) [Example 161], with not above 200 nM. Then `CCc1cc(-c2cc(C)ncc2C(=O)Nc2nnc(OCc3ccc(C(C)(C)O)cn3)s2)c(OC)cn1` [Example 106, 2′-ethyl-N-(5-((5-(2-hydroxypropan-2-yl)pyridin-2-yl)methoxy)-1,3,4-thiadiazol-2-yl)-5′-methoxy-6-methyl-[4,4′-bipyridine]-3-carboxamide], with not above 200 nM. Then `COc1cnc(Cl)cc1-c1cc(C)ncc1C(=O)Nc1nnc(OC[C@H]2CC[C@H](O)C2)s1` (single isomer, unassigned) [Example 208], with not above 200 nM. Turning to `Cc1cc(-c2ccccc2OC(F)F)c(C(=O)Nc2nnc(OCc3ccc(C(C)(C)O)cn3)s2)cn1` [Example 59, 4-(2-(difluoromethoxy)phenyl)-N-(5-((5-(2-hydroxypropan-2-yl)pyridin-2-yl)methoxy)-1,3,4-thiadiazol-2-yl)-6-methylnicotinamide], the concentration for half-maximal inhibition (IC50) was not above 200 nM. As for `COc1ccc(F)cc1-c1cc(C)ncc1C(=O)Nc1nnc(OCc2ccc(Cl)cn2)s1` [Example 13, N-(5-((5-chloropyridin-2-yl)methoxy)-1,3,4-thiadiazol-2-yl)-4-(5-fluoro-2-methoxyphenyl)-6-methylnicotinamide], the IC50 is not above 200 nM. Then `COc1cnc(Cl)cc1-c1cc(C)ncc1C(=O)Nc1nnc(OC[C@@H]2COC[C@H]2C)s1` (single isomer, unassigned) [Example 266], with not above 200 nM; and `COc1ccc(COc2nnc(NC(=O)c3cnc(C)cc3-c3cc(Cl)ncc3OC)s2)nc1` [Example 45, 2′-chloro-5′-methoxy-N-(5-((5-methoxypyridin-2-yl)methoxy)-1,3,4-thiadiazol-2-yl)-6-methyl-(4,4′-bipyridine)-3-carboxamide], with not above 200 nM.

Values taken from patent US20250325552A1, “SUBSTITUTED THIADIAZOLYL DERIVATIVES AS DNA POLYMERASE THETA INHIBITORS” (IDEAYA Biosciences, Inc., priority 2020, published 2025).
